Test [1] has as its system P. vulgaris ATCC 8427. In words: MIC, P. vulgaris ATCC 8427. It counts as cell-based. Conditions: for MIC P. vulgaris ATCC 8427: Example 111. The procedure:
(§1) The MIC assays are carried out in 150 μL volume in duplicate in 96-well clear flat-bottom plates. The bacterial suspension from an overnight culture growth in appropriate medium is added to a solution of test compound in 4% DMSO in water. Final bacterial inoculum is approximately 10^5-10^6 CFU/well. […] Both ampicillin and tetracycline are used as antibiotic-positive controls in each screening assay for S. pyogenes, E. coli imp-, E. coli, S. aureus, E. faecalis, K. pneumoniae and P. vulgaris. Ciprofloxacin is used as an antibiotic positive control in each screening assay for P. aeruginosa.
(§2) The following compounds were prepared using methods illustrated in the previous examples. The compounds were also examined in standard bacterial assays against E. Coli, S. Aureus, P. aurginosa, K. pneumoniae, P. vulgaris, and A. baumannii to determine activities. Each of the bacterial cultures that are available from ATCC (www.atcc.org) is identified by its ATCC number. A. baumannii is gentamicin sensitive Acinetobacter baumannii #2 from Walter Reed.

Test [2] has as its target 16S ribosomal subunit RNA target. In words: Mass spectrometry based binding assay (FTICR), 16S. Conditions: Example 106. The method in brief:
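Binding to the 16S ribosomal subunit RNA target was measured by FTICR mass spectrometry. Ligands or ligand mixtures were prepared at several concentrations in 10 μL of aqueous 100 mM ammonium acetate buffer with 33% isopropyl alcohol. Samples were infused at 1 μL/min into a negative-mode electrospray source, and ions were held 1 sec in an RF-only hexapole. Complex/free RNA ratios versus ligand concentration were fitted to a binding polynomial to obtain KD.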

In test [3] the test system is K. pneumoniae ATCC 10031. In words: MIC, K. pneumoniae ATCC 10031. In kind it is cell-based. Conditions: for MIC K. pneumoniae ATCC 10031: Example 111. Here is the method:
as §1, §2

The subject of test [4] is gentamicin sensitive Acinetobacter baumannii #2 from Walter Reed. Put plainly: MIC, A. baumannii WReed 2. The following applies: Example 111. In kind it is cell-based. Here is the method:
as §1, §2

In test [5] the test system is E. coli ATCC 25922. Put plainly: MIC, E. coli ATCC 25922. In kind it is cell-based. The following applies: for MIC E. coli ATCC 25922: Example 111. Here is the method: as §1, §2
Test [6] deals with P. aurginosa ATCC 29248. In words: MIC, P. aurginosa ATCC 29248. In kind it is cell-based. Conditions: Example 111. The procedure: as §1, §2
Test [7] concerns S. aureus ATCC 13709. Put plainly: MIC, S. aureus ATCC 13709. In kind it is cell-based. The following applies: for MIC S. aureus ATCC 13709: Example 111. Here is the method: as §1, §2
In test [8] the test system is P. aurginosa ATCC 25416. In words: MIC, P. aurginosa ATCC 25416. The following applies: Example 111. It counts as cell-based. The procedure:
as §1, §2

Test [9] deals with 18S ribosomal subunit RNA target. Put plainly: Mass spectrometry based binding assay (FTICR), 18S. Conditions: Example 106. The essentials: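 Ligands at varying concentrations were mixed with 2.5 or 5 μM RNA in 100 mM ammonium acetate with 33% isopropyl alcohol, then analysed by negative-mode ESI-FTICR. Complex/free RNA ion ratios plotted against ligand concentration were fitted to a second- or higher-order binding polynomial to give KD.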

Test [10] relates to Staphylococcus aureus (Smith Strain ATCC 13709). In words: Staphylococcus aureus mouse protection assay. In kind it is in vivo, mice. Conditions: Staph Conc. 10^6, 10% Mucin, the 13th table. The procedure:
Two of the novel aminoglycoside compounds of the invention were examined for their anitbacterial activity against staphylococcus aureus. Mice were fed with autoclaved commercial food pellets and sterile water ad libitum. Animals were inoculated intraperitoneally with 0.5 mL/mouse of the indicated concentration of S. aureus (ATCC 13709) containing 10% mucin. There were 10 mice in each treatment group and compounds were administered subcutaneously one and 3 hour after infection. Compounds 15a (R4═R5═CH3) and 15j (R4═H, R5═(CH2)2C6H5)) were used at 75 mg/kg, 37.5 mg/kg, 18.8 mg/kg, 9.4 mg/kg, 4.7 mg/kg, 2.3 mg/kg, 1.17 mg/kg and 0.5 mg/kg. Amakacin, paromomycin and neomycin were used as the positive controls at concentrations of 2 mg/kg, 1 mg/kg and 0.5 mg/kg.
Test compound was administered as an aqueous buffer solution (phosphate buffered saline (PBS), pH=7.4).

The subject of test [11] is E. Coli. In words: MIC, E. Coli. In kind it is cell-based. Conditions: for MIC E. Coli.: Example 109. The method in brief: (§3)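 Broth microdilution in duplicate, 150 μL: overnight-culture bacteria were added to compound in 4% DMSO in water. Final inoculum was about 10^5–10^6 CFU/well.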
Test [12] deals with S. Aureus. Put plainly: MIC, S. Aureus. The following applies: for MIC S. Aureus: Example 109. It counts as cell-based. The essentials: as §3
Test [13] concerns E. coli S30 bacterial extract (pBestLuc firefly luciferase reporter). Put plainly: Coupled bacterial transcription/translation assay. In kind it is biochemical. Conditions: Example 106; read-out: Trans/Trans IC50. The method in brief: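 Coupled transcription/translation of firefly luciferase from 1 μg pBestLuc (tac promoter) in E. coli S30 extract, with or without test compound. Reaction 35 min at 37° C., then functional luciferase detected by luminescence.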

Each structure is given as a SMILES string. In brackets after ≈: the same amount, converted by molar mass. Some results are limits rather than exact numbers.

The term MIC denotes the smallest concentration in the dilution series that meets the test's criterion for growth inhibition. Higher therefore signals a need for much substance. As usually defined, the Kd is the equilibrium constant for the complex coming apart.

On to `NC[C@@H]1O[C@H](O[C@H]2[C@@H](O)[C@H](O[C@@H]3[C@@H](O)[C@H](N)C[C@H](N)[C@H]3O[C@H]3O[C@H](CO)[C@@H](O)[C@H](O)[C@H]3N)O[C@@H]2CO)[C@H](N)[C@@H](O)[C@@H]1O` [paromomycin, reference compound], for which the minimal inhibitory concentration (MIC) in [1] (Proteus vulgaris, ATCC8427, Example 111) was greater than 40 µM; in [3] (Klebsiella pneumoniae, ATCC10031, Example 111) it was 0.6 to 1.3 µM (≈ 0.369 to 0.8 µg/mL); in test [4] (Acinetobacter baumannii), 2.5 to 5 µM (≈ 1.54 to 3.08 µg/mL); in test [5] (Escherichia coli, ATCC25922, Example 111), 5 to 10 µM (≈ 3.08 to 6.16 µg/mL); in test [6], greater than 40 µM; in test [7] (Staphylococcus aureus, ATCC13709, Example 111), 10 to 20 µM (≈ 6.16 to 12.3 µg/mL). Also, the MIC in [8] was greater than 40 µM; in [11] (Escherichia coli, Example 106), 20 to 40 µM (≈ 12.3 to 24.6 µg/mL); in test [12] (Staphylococcus aureus, Example 106) it was 3 to 5 µM (≈ 1.85 to 3.08 µg/mL). The dissociation constant Kd in test [2] turned out to be 600 nM; in test [9] it was 4800 nM. The “# Dead mice/Total mice in group” value in [10] (0.5 mg/kg subcutaneously) was 10/10; in [10] (1 mg/kg subcutaneously), 10/10; in test [10] (2 mg/kg subcutaneously), 9/10. In test [13], the IC50 was determined as 100 nM.

As to `NCC1OC(OC2C(CO)OC(OC3C(O)C(N)CC(N)C3OC3OC(CNCCc4ccc(F)cc4)C(O)C(O)C3N)C2O)C(N)C(O)C1O` (stereo not drawn) [Compound 15o], the “MIC P. vulgaris ATCC 8427” value in test [1] was greater than 40 µM. Moreover, in test [3], the “MIC K. pneumoniae ATCC 10031” value is 0.6 to 1.3 µM. Further, the “MIC A. baumannii WReed 2” value in test [4] lay in the range of 10 to 20 µM. Also, in test [5], the “MIC E. coli ATCC 25922” value was in the range of 1.3 to 2.5 µM. The “MIC P. aurginosa ATCC 29248” value in test [6] is greater than 40 µM. Moreover, the “MIC S. aureus ATCC 13709” value in [7] fell in the range of 0.3 to 0.6 µM. For the same compound, the “MIC P. aurginosa ATCC 25416” value in test [8] was greater than 40 µM. Moreover, the “MIC E. Coli.” value in [11] lay within 0.6 to 1.2 µM. For the same compound, the “MIC S. Aureus” value in test [12] fell in the range of 0.2 to 0.3 µM.

Turning to `NCC1OC(OC2C(CO)OC(OC3C(O)C(N)CC(N)C3OC3OC(CNCCCc4ccccc4)C(O)C(O)C3N)C2O)C(N)C(O)C1O` (stereo not drawn) [Compound 15l], the “MIC P. vulgaris ATCC 8427” value in test [1] was greater than 40 µM. Further, in [3], the “MIC K. pneumoniae ATCC 10031” value is 0.6 to 1.3 µM. For the same compound, the “MIC A. baumannii WReed 2” value in test [4] lay in the range of 10 to 20 µM. In test [5], the “MIC E. coli ATCC 25922” value lay within 1.3 to 2.5 µM. In addition, the “MIC P. aurginosa ATCC 29248” value in [6] is greater than 40 µM. Further, in test [7], the “MIC S. aureus ATCC 13709” value was 0.2 to 0.3 µM. For the same compound, the “MIC P. aurginosa ATCC 25416” value in test [8] was greater than 40 µM. In addition, the “MIC E. Coli.” value in test [11] was in the range of 0.6 to 1.2 µM. Moreover, the “MIC S. Aureus” value in test [12] lay within 0.3 to 0.6 µM.
